One experiment relates to HIV-2 protease. The experiment in a line: HIV protease cleavage of nonapeptide (HPLC). In kind it is biochemical. Conditions: 0.5 μl of 10 μg/μl inhibitor in DMSO per 10 μl reaction; pH 6.5, room temperature; pentapeptide product relative to DMSO control; sampled at ca. 16 and 40 hr (time not given). As for the experimental part:
Activity Against HIV Protease
The assay for proteolyic activity is a modified version of that previously described by Copeland et al., Gene Anal. Tech., 5:109-115 (1988). For each assay to be performed 2 microliters of protease solution (ca. 100 ng) is added to 3 μg of nonapeptide (Val-Ser-Gln-Asn-Tyr-Pro-Ile-Val-Gln-NH2) in 8 μl of 200 mM sodium phosphate, 1 M NaCl, 5% glycerol, 0.25% Nonidet-40, at pH 6.5. This affords a stock solution containing 10 μl per number of reactions. This stock is aliquoted out in 10 μl portions to which 0.5 μl of DMSO (a control is run with each set of assays to compensate for minor experimental variations) or a DMSO solution containing 10 μg/μl of an inhibitor, i.e., any one of the compounds of the present invention, is added. The reactions were incubated at room temperature and 4 μl portions were removed at ca. 16 and 40 hr. intervals. HPLC analysis was performed on a 4.6×250 mm Lichrosorb RP-18 column eluted with a gradient of 0-40% acetonitrile in water (containing 0.05% TFA) over 30 min monitoring absorbance at 206 nm. Progress of the enzymatic cleavage was followed by monitoring the appearance of the pentapeptide (Val-Ser-Gln-Asn-Tyr-OH) cleavage product. The activity is expressed as the amount of the pentapeptide (Val-Ser-Gln-Asn-Tyr-OH) observed relative to the control reaction for that set of assays.
Inhibition of HIV-2 protease

The subject of the next experiment is HIV1 IIIb. Kind of experiment: microbe, parasite or virus in culture. The experiment is classed as cell-based. Conditions: Human immunodeficiency virus 1, IIIB; for viability at 50 µg/mL: 50 ug/ml; for viability at 4.9 µg/mL: 4.9 ug/ml; for viability at 2.9 µg/mL: 2.9 ug/ml; for viability at 21 µg/mL: 21 ug/ml; for viability at 10 µg/mL: 10 ug/ml; for viability at 100 µg/mL: 100 ug/ml. From the text:
In-vitro Screening Anti--HIV XTT Assay
This assay, which is available to the public by the National Cancer Institute, utilizes colorimetry based on the production of a colored formazin from a tetrazolium salt by viable cells, to develop a safe, rapid and quantitative measure of HIV cytopathology. The assay is a modification of the previously described screening method for the detection of anti-tumor drug cytotoxicity (D. A. Scudiero, et al, Cancer Res, 48, 4827-4833 (1988)). It involves the plating of susceptible human "host" cells with and without virus in microculture plates, adding various concentrations of the respective test compounds, incubating the plates for seven days, during which time infected, non-drug treated control cells are largely or totally destroyed by the virus. The number of remaining viable cells are determined utilizing a calorimetric endpoint. A beneficial antiviral effect is indicated by a response % grater than the virus kill %, with 100% being optimal.
Anti-viral effect: Response (Viable Cells, determined by colorometric
absorbance of formazan dye produced) as % of uninfected controls
Virus Source: HIV1 IIIb; C, Virus producing H9 cells; V, cell free virus
Virus Kill: Infected untreated cells as % of uninfected cell controls
*: Culture redosed with compound after 3 days

Where two headings read alike, the source gives them in different places. Where a SMILES comes first, the peptide text is derived from it. [ ]: non-standard residue; d: D form. The star is where a group is joined. Sta = CC(C)C[C@H](N)[C@@H](O)CC(=O)O; Isovaleryl = CC(C)CC(=O)*

As for `CCCCCCCCCCC[C@@H]1O[C@@H]1CO` (relative stereo) [2-cis-Undecyloxirane methanol], in the experiment on HIV-2 protease, the “Percent Control Cleavage of Nonapeptide HIV-1 Cleavage Site Fragment” value (“Percent Control Cleavage” for short) is 104%.

As for `CCCCCCCCCCC[C@H]1O[C@@H]1CO` (relative stereo) [2-trans-Undecyloxirane methanol], the “Percent Control Cleavage” value in the experiment on HIV-2 protease came to 88%.

For the compound `CCCCCCC[C@H]1O[C@H]1C` (relative stereo) [Example 43, cis-2-Epoxydecene], the “Percent Control Cleavage” value in the experiment with HIV-2 protease was 102%.

Regarding `CCCCCCC/C=C\CO` [Example 3, cis-2-Decen-1-ol], the “Percent Control Cleavage” value in the experiment on HIV-2 protease turned out to be 105%.

Take `CCCCCCCCC[C@@H]1O[C@@H]1CO` [Example 12, (2R-cis)-3-Nonyloxirane Methanol]: the viability at 50 µg/mL in the experiment with HIV1 IIIb (168 h, read-out: Antiviral Effect (viable cells as % of uninfected controls), run 8, source V (cell free virus), virus kill 27.0%) turned out to be 56.9%; with HIV1 IIIb (H9, 168 h, read-out: Antiviral Effect (viable cells as % of uninfected controls), run 3, source C (virus producing H9 cells), virus kill 16.0%), 32.1%. The viability at 4.9 µg/mL is 82.4% in the experiment on HIV1 IIIb (168 h, read-out: Antiviral Effect (viable cells as % of uninfected controls), run 9, source V (cell free virus), virus kill 53.0%); 31.6% in the experiment with HIV1 IIIb (H9, 168 h, read-out: Antiviral Effect (viable cells as % of uninfected controls), run 4, source C (virus producing H9 cells), virus kill 16.0%); 16.7% in the experiment with HIV1 IIIb (H9, 168 h, read-out: Antiviral Effect (viable cells as % of uninfected controls), run 6, source C (virus producing H9 cells), virus kill 11.0%). Besides, the viability at 2.9 µg/mL in the experiment with HIV1 IIIb (168 h, read-out: Antiviral Effect (viable cells as % of uninfected controls), run 10, source V (cell free virus), virus kill 55.0%) came to 82.9%; in the experiment with HIV1 IIIb (168 h, read-out: Antiviral Effect (viable cells as % of uninfected controls), run 12, source V (cell free virus), virus kill 36.0%) it was 62.2%; with HIV1 IIIb (H9, 168 h, read-out: Antiviral Effect (viable cells as % of uninfected controls), run 5, source C (virus producing H9 cells), virus kill 15.0%), 23.1%. Moreover, the viability at 49 µg/mL in the experiment on HIV1 IIIb (168 h, read-out: Antiviral Effect (viable cells as % of uninfected controls), run 11, 49 ug/ml, source V (cell free virus), virus kill 30.0%) stood at 54.9%. Besides, the viability at 21 µg/mL in the experiment with HIV1 IIIb (168 h, read-out: Antiviral Effect (viable cells as % of uninfected controls), run 13, source V (cell free virus), virus kill 19.5%) worked out at 53.4%; in the experiment on HIV1 IIIb (168 h, read-out: Antiviral Effect (viable cells as % of uninfected controls), run 14, source V (cell free virus), virus kill 24.0%), 98.7%. The viability at 10 µg/mL with HIV1 IIIb (H9, 168 h, read-out: Antiviral Effect (viable cells as % of uninfected controls), run 1, source C (virus producing H9 cells), virus kill 6.0%) came out at 75.1%; in the experiment with HIV1 IIIb (H9, 168 h, read-out: Antiviral Effect (viable cells as % of uninfected controls), run 2, source C (virus producing H9 cells), virus kill 27.0%) it was 71.3%. The viability at 29 µg/mL in the experiment on HIV1 IIIb (H9, 168 h, read-out: Antiviral Effect (viable cells as % of uninfected controls), run 7, 29 ug/ml, source C (virus producing H9 cells), virus kill 11.0%) was determined as 15.7%. Also, in the experiment on HIV-2 protease, the “Percent Control Cleavage” value was determined as 96%.

For `COC(=O)[C@H]1O[C@H]1COCc1ccccc1` [Example 26, Methyl(2S-cis)-3-(benzyloxymethyl)oxirane carboxylate], the viability at 10 µg/mL in the experiment with HIV1 IIIb (168 h, read-out: Antiviral Effect (viable cells as % of uninfected controls), run 6, source V (cell free virus), virus kill 54.0%) came out at 58.7%; in the experiment with HIV1 IIIb (H9, 168 h, read-out: Antiviral Effect (viable cells as % of uninfected controls), run 1, source C (virus producing H9 cells), virus kill 17.0%) it was 20.8%; in the experiment with HIV1 IIIb (H9, 168 h, read-out: Antiviral Effect (viable cells as % of uninfected controls), run 2, source C (virus producing H9 cells), virus kill 13.2%) it was 39.4%; in the experiment with HIV1 IIIb (H9, 168 h, read-out: Antiviral Effect (viable cells as % of uninfected controls), run 4, source C (virus producing H9 cells), virus kill 12.0%), 13.8%. Also, the viability at 100 µg/mL in the experiment with HIV1 IIIb (168 h, read-out: Antiviral Effect (viable cells as % of uninfected controls), run 7, source V (cell free virus), virus kill 54.0%) stood at 81.3%; with HIV1 IIIb (168 h, read-out: Antiviral Effect (viable cells as % of uninfected controls), run 9, source V (cell free virus), virus kill 23.0%), 23.7%; with HIV1 IIIb (H9, 168 h, read-out: Antiviral Effect (viable cells as % of uninfected controls), run 3, source C (virus producing H9 cells), virus kill 13.2%), 54%; in the experiment on HIV1 IIIb (H9, 168 h, read-out: Antiviral Effect (viable cells as % of uninfected controls), run 5, source C (virus producing H9 cells), virus kill 12.0%), 16.3%. For the same compound, in the experiment with HIV1 IIIb (168 h, read-out: Antiviral Effect (viable cells as % of uninfected controls), run 8, 1 ug/ml, source V (cell free virus), virus kill 23.0%), the viability at 1 µg/mL worked out at 19.8%. Besides, in the experiment on HIV1 IIIb (168 h, read-out: Antiviral Effect (viable cells as % of uninfected controls), run 10, 487 ug/ml, source V (cell free virus), virus kill 30.0%), the viability at 487 µg/mL came out at 28.1%. In the experiment on HIV1 IIIb (168 h, read-out: Antiviral Effect (viable cells as % of uninfected controls), run 11*, 0.487 ug/ml, source V (cell free virus), virus kill 25.0%, culture redosed with compound after 3 days), the viability at 0.487 µg/mL came out at 26.6%.

In the case of `CCCCCCCCC[C@@H]1O[C@H]1CO` [Example 29, (2S-trans)-3-Nonyloxirane Methanol], the “Percent Control Cleavage” value with HIV-2 protease is recorded as 106%.

With `CCCCCCCCC[C@H]1O[C@@H]1CO` [Example 30, (2R-trans)-3-Nonyloxirane Methanol], the “Percent Control Cleavage” value in the experiment on HIV-2 protease came out at 105%.

In the case of `CCCCCCCCCCC[C@@H]1O[C@H]1CO` [Example 31, (2S-trans)-3-Undecyloxirane Methanol], in the experiment with HIV-2 protease, the “Percent Control Cleavage” value worked out at 95%.

As to `CCCCCCCCCCC[C@H]1O[C@@H]1CO` [Example 32, (2R-trans)-3-Undecyloxirane Methanol], the “Percent Control Cleavage” value in the experiment with HIV-2 protease is listed as 98%.

For the compound `CCCCCCC[C@@H]1O[C@H]1CO` [Example 33, (2S-trans)-3-heptyloxirane Methanol], the “Percent Control Cleavage” value in the experiment on HIV-2 protease is reported as 105%.

As for `CCCCCCC[C@H]1O[C@@H]1CO` [Example 34, (2R-trans)-3-Heptyloxirane Methanol], in the experiment on HIV-2 protease, the “Percent Control Cleavage” value is 104%.

As for `CCCCCCC[C@H]1O[C@H]1C(=O)O` [Example 37, (2R-cis)-3-Heptyloxirane Carboxylic Acid], the “Percent Control Cleavage” value with HIV-2 protease was 104%.

Regarding `CCCCCCC[C@@H]1O[C@@H]1C(=O)O` [Example 38, (2S-cis)-3-Heptyloxiranecarboxylic Acid], in the experiment on HIV-2 protease, the “Percent Control Cleavage” value is given as 105%.

Consider `CCCCCCCCC[C@H]1O[C@H]1C(=O)N1CCC[C@H]1C(=O)OC` [Example 41, N-(2R-cis)-3-Nonyloxiraneacyl L-proline Methyl Ester], for which the “Percent Control Cleavage” value in the experiment with HIV-2 protease was 24%.

`CCCCCCCCC[C@H]1O[C@H]1C(=O)N(CC)CC` [Example 42, N,N-Diethyl-(2R-cis)-3-nonyloxiranecarboxy Amide]: the “Percent Control Cleavage” value in the experiment with HIV-2 protease is on record as 77%.

On to `CCCCCCCCCCCCCC(=O)O` [Myristic Acid, reference compound], for which the “Percent Control Cleavage” value with HIV-2 protease stood at 111%.

In the case of `CC(C)CC(=O)N[C@H](C(=O)N[C@H](C(=O)N[C@@H](CC(C)C)[C@@H](O)CC(=O)N[C@@H](C)C(=O)N[C@@H](CC(C)C)[C@@H](O)CC(=O)O)C(C)C)C(C)C` [Pepstatin A, reference compound] (Isovaleryl-VV[Sta]A[Sta]-OH), in the experiment with HIV-2 protease, the “Percent Control Cleavage” value came to 1%.

Source of the values: patent US6153589A, “2,3-epoxy alcohols, acids and derivatives as anti retroviral chemotherapeutic agents” (The United States of America as represented by the …, priority 1992, dated 2000).
